These compounds were tested against T1, USP28 (USP28-5(1-1077)-TEV-6*His; LifeSensors) (Homo sapiens, UniProt Q96RU2) (assay: Ubiquitin-Rhodamine 110 Assay for USP28 Activity, Example A-1(b)). Conditions: Ubiquitin-Rhodamine 110 assay, Example A-1(b).
T1 construct: construct USP28 (USP28-5(1-1077)-TEV-6*His; LifeSensors); TEV cleavage site (C); 6xHis (C); purchased LifeSensors
T1 sequence (Q96RU2 1-1077): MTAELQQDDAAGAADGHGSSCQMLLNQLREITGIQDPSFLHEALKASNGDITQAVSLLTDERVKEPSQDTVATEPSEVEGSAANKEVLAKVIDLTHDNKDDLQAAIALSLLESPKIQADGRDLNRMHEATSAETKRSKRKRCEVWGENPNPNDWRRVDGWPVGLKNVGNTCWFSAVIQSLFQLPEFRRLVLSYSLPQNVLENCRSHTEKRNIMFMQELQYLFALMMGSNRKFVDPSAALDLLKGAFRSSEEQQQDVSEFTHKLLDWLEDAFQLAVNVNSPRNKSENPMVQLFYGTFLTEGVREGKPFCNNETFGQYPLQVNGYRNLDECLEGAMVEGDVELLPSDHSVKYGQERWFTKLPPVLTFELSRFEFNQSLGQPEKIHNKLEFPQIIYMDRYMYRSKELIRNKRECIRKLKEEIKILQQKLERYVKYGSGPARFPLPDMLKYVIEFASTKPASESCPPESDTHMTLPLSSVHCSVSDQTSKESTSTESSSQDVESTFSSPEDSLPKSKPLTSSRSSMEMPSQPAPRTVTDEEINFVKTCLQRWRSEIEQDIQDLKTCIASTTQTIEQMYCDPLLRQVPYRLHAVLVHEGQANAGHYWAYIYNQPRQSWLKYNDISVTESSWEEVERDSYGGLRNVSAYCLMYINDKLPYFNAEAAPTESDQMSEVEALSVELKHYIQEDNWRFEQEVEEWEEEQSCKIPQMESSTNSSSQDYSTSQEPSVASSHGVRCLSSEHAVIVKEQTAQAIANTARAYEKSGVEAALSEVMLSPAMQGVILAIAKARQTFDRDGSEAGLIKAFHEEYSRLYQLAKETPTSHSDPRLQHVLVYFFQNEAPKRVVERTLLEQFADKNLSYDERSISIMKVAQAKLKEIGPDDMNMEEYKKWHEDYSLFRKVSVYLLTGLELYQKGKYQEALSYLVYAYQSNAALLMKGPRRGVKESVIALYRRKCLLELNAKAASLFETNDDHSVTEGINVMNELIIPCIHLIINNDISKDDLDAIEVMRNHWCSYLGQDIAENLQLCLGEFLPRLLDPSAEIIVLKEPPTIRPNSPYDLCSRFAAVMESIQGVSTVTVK
Type: biochemical
Outline: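 Single-point screening used 10 μM compound with 90 min room-temperature incubation; follow-up dose-responses (25 μM top, 3-fold) used 75 pM USP28 1-1077 construct, 30 min compound preincubation, 25 nM Ub-Rh110, 20 min reaction, citric acid quench. Rh110 fluorescence normalised to no-enzyme and DMSO controls; IC50 from 4-parameter logistic fit.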

Row | SMILES | USP28 A-1(b) IC50 range
1 | Cc1ccc2c(N)c(C(=O)N[C@H]3COc4cc(N5CC[C@H](C(=O)O)C5)ccc4C3)sc2n1 [Example 6-3, (S)-1-((R)-3-(3-amino-6-methylthieno[2,3-b]pyridine-2-carboxamido)chroman-7-yl)pyrrolidine-3-carboxylic acid] | ++ (0.2-2 μM)
2 | O=C(N[C@H]1COc2cc(N3CCNCC3)ccc2C1)c1ccc(NCc2ccc3c(c2)CCO3)nc1 [Example 472, (R)-6-(((2,3-dihydrobenzofuran-5-yl)methyl)amino)-N-(7-(piperazin-1-yl)chroman-3-yl)nicotinamide] | ++ (0.2-2 μM)
3 | Cc1ccc2c(N)c(C(=O)N[C@H]3COc4cc(N5CC(O)(C(F)(F)F)C5)ccc4C3)sc2n1 [Example 5-3, (R)-3-amino-N-(7-(3-hydroxy-3-(trifluoromethyl)azetidin-1-yl)chroman-3-yl)-6-methylthieno[2,3-b]pyridine-2-carboxamide] | +++ (0.05-0.2 μM)
4 | Cc1cnc2c(N)c(C(=O)N[C@@H]3CCc4cc(N5CC6CNCC(C5)O6)ccc4C3)sc2n1 [Example 450, N-((2R)-6-(9-oxa-3,7-diazabicyclo[3.3.1]nonan-3-yl)-1,2,3,4-tetrahydronaphthalen-2-yl)-7-amino-3-methylthieno[2,3-b]pyrazine-6-carboxamide] | + (>2 μM)
5 | Cc1ccc2c(N)c(C(=O)N[C@H]3COc4cc(N5CC[C@@]6(CCCNC6)C5)ccc4C3)sc2n1 [Example 3-14, N-((R)-7-((R)-2,7-diazaspiro[4.5]decan-2-yl)chroman-3-yl)-3-amino-6-methylthieno[2,3-b]pyridine-2-carboxamide] | +++ (0.05-0.2 μM)
6 | Cc1ccc2c(N)c(C(=O)N[C@H]3COc4cc(N5C[C@@H](N)[C@H](F)C5)ccc4C3)sc2n1 [Example 3-8, 3-amino-N-((R)-7-((3R,4R)-3-amino-4-fluoropyrrolidin-1-yl)chroman-3-yl)-6-methylthieno[2,3-b]pyridine-2-carboxamide] | ++ (0.2-2 μM)
7 | Cc1ccc2c(N)c(C(=O)N[C@H]3COc4cc(N5CCN[C@@H](C(F)(F)F)C5)ccc4C3)sc2n1 [Example 3-11, 3-amino-6-methyl-N-((R)-7-((R)-3-(trifluoromethyl)piperazin-1-yl)chroman-3-yl)thieno[2,3-b]pyridine-2-carboxamide] | ++ (0.2-2 μM)
8 | Cc1ccc2c(N)c(C(=O)N[C@H]3COc4cc(N5CC6COCC(C5)C6(F)F)ccc4C3)sc2n1 [Example 5-4, 3-amino-N-((3R)-7-(9,9-difluoro-3-oxa-7-azabicyclo[3.3.1]nonan-7-yl)chroman-3-yl)-6-methylthieno[2,3-b]pyridine-2-carboxamide] | +++ (0.05-0.2 μM)
9 | O=C(N[C@H]1COc2cc(N3CCNCC3)ccc2C1)c1ccc(NCc2ccccn2)nc1 [Example 470, (R)-N-(7-(piperazin-1-yl)chroman-3-yl)-6-((pyridin-2-ylmethyl)amino)nicotinamide] | + (>2 μM)
10 | O=C(N[C@H]1COc2cc(N3CCNCC3)ccc2C1)c1ccc(NCc2cccnc2)nc1 [Example 468, (R)-N-(7-(piperazin-1-yl)chroman-3-yl)-6-((pyridin-3-ylmethyl)amino)nicotinamide] | + (>2 μM)

— patent US11524966B1 (Valo Early Discovery, Inc., priority 2017, dated 2022)
